The nature of this series: Human HepG2 cell viability assay in 384 well format. In kind it is toxicity, cell-based. As to conditions: HepG2 cells, read-out: Inhibition. More on the design: dose 125 nL, time 70.5 hour; cytotoxicity at 70.5 h: concentration not given beside the values.
On to `O=C(O)[C@@H]1CN(C(=O)c2cc(C3CC3)n[nH]2)C[C@H]1c1cccc(F)c1`, for which the cytotoxicity at 70.5 h was -9.94%.
In the case of `Cc1cnn(Cc2ccc(NC(=O)N[C@@H]3C=C[C@H](CO)C3)cc2)c1`, the cytotoxicity at 70.5 h was -15.1%.
For `COc1cc2nc3n(c(=O)c2cc1OC)CCN(C(=O)C1CCC1)CC3` the value was -4.59%; for `Cc1ccc(C2CSCCN2CC(=O)N2CCOCC2)cc1` (centres undefined), -5.8%.
The value for `Cc1c(NCCO)cccc1OC1CCCC1` was -2.5%; that for `COc1ccc(C2CCCN2C(=O)NCCNc2ccccn2)cc1` (centres undefined) was -19.3%; that for `COc1ccc(C2CCCN2S(=O)(=O)c2cc(F)ccc2F)cc1` (centres undefined) was -6.85%.
The value for `CC[C@H](C)[C@H](N)C(=O)N1CC(=O)c2sc(NC3CCCCC3)nc2C1` was 3.97%; that for `Cc1csc(C(Cc2cccs2)NCc2cc3c(cc2C)OCO3)n1` (centres undefined) was 17.6%; that for `Cn1cc(NC(=O)NCc2ccsc2)ccc1=O` was -2.03%.
Turning to `Cc1ccc(C)c(S(=O)(=O)N2CCN(C)C3(CCC(=O)N(C)CC3)C2)c1` (centres undefined), the cytotoxicity at 70.5 h is -13.3%.
For `CN(C)c1cc(CNC(=O)CC2CCCCC2)ccn1` the value was -5.82%.
For the molecule `Cc1ccccc1-c1noc(CN2CCc3cncnc3C2)n1`, the cytotoxicity at 70.5 h is -11.1%.
For `CCc1nc(C2CCCN(C(=O)c3cccnc3O)C2)no1` (centres undefined) the value was -0.758%; for `CCCc1noc(CNC2CCCN(Cc3noc(C4CC4)n3)C2)n1` (centres undefined), -3.33%; for `CN(C)C(=O)[C@H]1C[C@H]2OCC[C@H]2N(CCOc2ccc(Cl)cc2)C1`, -3.17%.
Take `COc1ccccc1OC1CCN(Cc2cnc(N(C)C)nc2)CC1`: the cytotoxicity at 70.5 h was -7.45%.
For `O=S(=O)(NC1=NCN(CCc2cccs2)CN1)c1ccccc1` the value was -19.9%; for `CN(Cc1cc(Br)cn1C)C(=O)Cc1cccc(O)c1`, -3.37%.
For `O=C(CN1CCCS1(=O)=O)NCCOc1ccc2c(c1)CCC2` the value was 5.58%; for `CCN(CCc1nccs1)C(=O)c1sccc1C`, -9.19%.
As to `CCOCc1ncn2c1CN(S(=O)(=O)c1cccs1)CCC2`, the cytotoxicity at 70.5 h amounted to 12.5%.
The value for `Cc1occc1C(=O)N1CCO[C@H]2[C@H](Oc3cccnc3)CC[C@@H]21` was 14.6%; that for `Cc1ccnc(OCC(=O)N2CCN(c3ncccn3)CC2)n1` was -12.6%; that for `C[C@@H]1CN(C(=O)C2CCS(=O)(=O)CC2)C[C@]1(C)O` was -8.15%.
As to `Cc1ccc(CC(=O)NC2CCN(c3cccc(Cl)c3)C2)cn1` (centres undefined), the cytotoxicity at 70.5 h is 22.6%.
As for `CN(C)c1cc(CNc2ccc(S(=O)(=O)C(C)(C)C)nc2)ccn1`, the cytotoxicity at 70.5 h came out at 8.83%.
For `CN(Cc1ccco1)C(=O)CN1C(=O)c2ccccc2C1=O` the value was -2.38%; for `COCC1CN(Cc2ccccn2)Cc2nn(C)cc21` (centres undefined), -7.74%.
The value for `Cc1cc(NC(=O)Cn2cnc(-c3cccs3)cc2=O)no1` was -2.01%; that for `Cc1nnc(NC(=O)c2c3c(nn2C2CCS(=O)(=O)C2)CCC3)s1` (centres undefined) was -4.4%; that for `CSCCCNC(=O)Nc1cccc(-c2nccn2C)c1` was 3.57%.
The value for `CCS(=O)(=O)N1Cc2nccn2CC(COc2cccnc2)C1` (centres undefined) was -2.17%.
For `Nc1cc(-c2cc(C(=O)O)ccc2Cl)c2cc[nH]c2n1`, the cytotoxicity at 70.5 h is -8.39%.
For the molecule `CN(Cc1ccncc1)C(=O)c1ccc2c(c1O)OC(C)(C)C2`, the cytotoxicity at 70.5 h was -5.32%.
With `COCc1nc(NC(C)Cc2cc(C)n[nH]2)c2cnn(C)c2n1` (centres undefined), the cytotoxicity at 70.5 h was -0.0562%.
`O=C(NCc1ccccn1)NC1CCCN(c2ncccn2)C1` (centres undefined): the cytotoxicity at 70.5 h is -9.45%.
The value for `CN(C)CCOCC1CN(C(=O)[C@H]2CCCO2)Cc2ccnn2C1` (some centres undefined) was -1.09%.
As to `CCc1ccc(C(=O)NC2CCCN(c3ccn(C)n3)C2=O)o1` (centres undefined), the cytotoxicity at 70.5 h came out at 9.2%.
For `COCC(c1cccc(C(F)(F)F)c1)N(C)C(=O)c1cccnc1` (centres undefined) the value was -1.51%; for `Cc1ccc(C(=O)Nc2ccc3c(c2)N(C)CCN(C)C3)c(=O)[nH]1`, -7.32%; for `CCN(CC)S(=O)(=O)c1ccc(C(=O)NC(C)(C#N)C2CC2)cc1` (centres undefined), 19.1%.
For the molecule `CCCOCC1CCN(C(=O)Cn2ncc(N3CCCC3)cc2=O)C1` (centres undefined), the cytotoxicity at 70.5 h amounted to 26.8%.
In the case of `Cc1c(C(=O)N2CC(=O)N(C)C2)nnn1-c1cccc2cccnc12`, the cytotoxicity at 70.5 h was -3.09%.
Turning to `O=C(c1ccccn1)N1C[C@@H]2CC[C@H](C1)N(C(=O)CCC(F)(F)F)C2`, the cytotoxicity at 70.5 h was -3.18%.
For `Cn1cccc1C(O)CNS(=O)(=O)Cc1ccccc1` (centres undefined) the value was 12.5%; for `CN(C(=O)CN1CCCC1=O)C1CCCN(C2Cc3ccccc3C2)C1` (centres undefined), -3.18%; for `CC(C)OCc1ncn2c1CN(Cc1ccc(F)cc1)CCC2`, -3.8%.
As for `Cc1cnn(CC2CCCCN2Cc2noc(C3CC3)n2)c1` (centres undefined), the cytotoxicity at 70.5 h was -6.32%.
For `CC(C)Oc1ncc(C(=O)N2CCc3ccc(O)cc3C2)cc1Cl`, the cytotoxicity at 70.5 h amounted to 15.8%.
As to `O[C@@H]1C[C@@](CNCc2cccc(Cl)c2)(COc2cnccn2)C[C@@H]1O`, the cytotoxicity at 70.5 h is -12%.
For `CC(C)c1cc(N(C)Cc2noc(C3CCCC3)n2)n2nccc2n1` the value was -13.6%; for `CCN1CC(C(=O)N2CC(Oc3ccccc3F)C2)CC1=O` (centres undefined), -1.35%.
For `Cc1ccc2cc(CNCCCO)c(=O)[nH]c2c1`, the cytotoxicity at 70.5 h is -2.37%.
For `CN1CCN(Cc2cccnc2)C2(CCN(c3ncccn3)C2)C1=O` (centres undefined), the cytotoxicity at 70.5 h is -5.32%.
The value for `O=C(C1CCC1)N1CCC(=O)N(C2CC2)Cc2cc(F)ccc21` was 1.48%; that for `O=C(CCC(=O)N1CCC(c2noc3cc(F)ccc23)CC1)NC1CC1` was 13.1%.
`CCc1nnc2n1CCN(Cc1ccc(C(=O)N3CCCC3)cc1)C2`: the cytotoxicity at 70.5 h is -25.8%.
The value for `O=C1CCC2(CCCO2)CCN1Cc1noc(C2CCCC2)n1` (centres undefined) was 0.738%; that for `CN(Cc1ccccc1F)C(C(N)=O)c1ccccc1` (centres undefined) was 5.98%; that for `O=C(O)c1ccc(N2CCC(Oc3ccc(Cl)cc3)CC2)nc1` was -12.3%.
`Cn1cc(-c2ccc(C3CCCCN3Cc3cccnc3)cn2)cn1` (centres undefined): the cytotoxicity at 70.5 h is -1.27%.
In the case of `CCN(CCNC(=O)C1CCCN(C(C)=O)C1)c1ccccc1C` (centres undefined), the cytotoxicity at 70.5 h is -10.5%.
For `Cc1cc2c(cc1C)C(NCc1nnc3n1CCCCC3)CCCO2` (centres undefined) the value was -7.63%.
For `CC(=O)N1CCC(C)(c2cc[nH]n2)CC1` the value was -3.17%; for `Cc1nn(C)c2c(N(C)Cc3cccs3)nc(C3CC3)nc12`, 22.5%.
Turning to `COCCC(=O)N1Cc2cnc(Cc3ccc(OC)cc3)nc2C1`, the cytotoxicity at 70.5 h is -1.53%.
In the case of `Cc1noc(C)c1Cn1cc(I)cc(C)c1=O`, the cytotoxicity at 70.5 h is 4.77%.
Regarding `O=C(Nc1cccc(F)c1)N1CCC(CO)(Nc2ccccc2)CC1`, the cytotoxicity at 70.5 h is -5.91%.
With `Cc1cnn(-c2cccc(N3CCCC3)n2)c1`, the cytotoxicity at 70.5 h is -1.27%.
For the molecule `CCNC(=O)CN1CCCC(c2ccc(C(=O)O)cc2)C1` (centres undefined), the cytotoxicity at 70.5 h is 31.1%.
The value for `Cc1nc(C2CCCN(C(=O)C3=NN(C(C)C)C(=O)CC3)C2)no1` (centres undefined) was -9.12%; that for `CN(C)C(=O)[C@@H]1CCO[C@@H]2CCN(c3ncccn3)C[C@@H]21` was -2.08%; that for `Cc1nnc2n1CCN(Cc1csc(Cc3ccccc3)n1)C2` was -34.1%.
Take `c1cn(CCc2c[nH]cn2)c(-c2cc(CN3CCCC3)cs2)n1`: the cytotoxicity at 70.5 h is -9.06%.
As for `CCCn1ccc(C(=O)Nc2ccc3c(c2)C(C)(C)C(=O)N3C)n1`, the cytotoxicity at 70.5 h amounted to 13.3%.
The value for `Cc1csc(N2CCN(CC(=O)Nc3ccncc3)CC2C)n1` (centres undefined) was 9.84%.
For `COCC1CC2(CCN(C(C)=O)CC2)CN1Cc1csc(C)n1` (centres undefined) the value was -4.16%; for `Cc1nc(C)c(CN2CCOC(Cc3ccccc3Cl)C2)nc1C` (centres undefined), -2.34%; for `Cc1ccccc1N1CCN(C(=O)c2cccnc2-n2cncn2)CC1`, -6.93%.
In the case of `Cn1cncc1CNC1CC2(CCN(CC3CC3)CC2)c2ccccc21` (centres undefined), the cytotoxicity at 70.5 h is -2.23%.
The value for `O=C(Cn1cc(NC(=O)c2ccc(F)cc2F)cn1)NC1CCCC1` was -4.45%; that for `CCc1nccn1C1CCCN(C(=O)Cc2cn3ccsc3n2)C1` (centres undefined) was -11.7%; that for `CCn1ccnc1CN(C)CC1CCCN1c1cccnn1` (centres undefined) was 10%.
For `O=C1CC(c2ccccc2)C2(CCN(Cc3ccncc3)CC2)N1` (centres undefined) the value was -12.7%.
As for `NC(=O)Cn1ccnc1C1CCCN(Cc2cccc(Cl)c2F)C1` (centres undefined), the cytotoxicity at 70.5 h is -11.7%.
For `CN1CCN(c2nccc(-c3cncnc3C3CCCCC3)n2)CC1` the value was -5.17%; for `OCCN1CCCC(c2nccnc2Oc2ccc(F)cc2)C1` (centres undefined), -2.84%; for `COc1cccc(N2Cc3nc(=O)[nH]n3C2=O)c1`, -16.5%.
For `O=C(c1ccccc1)N1CCCn2c(CN3CCCCC3)nnc2C1` the value was 26.2%; for `CN(C)CC1(O)CCN(C(=O)Cc2ccc3c(c2)CCCC3)C1` (centres undefined), -7%; for `COCCN1CCCC2(CCN(c3nc(C)nc4ccsc34)C2)C1=O` (centres undefined), -11.8%.
Take `O=C(C1CC1)N1CCC2(COCc3cnc(NCc4ccco4)nc32)C1` (centres undefined): the cytotoxicity at 70.5 h was -2.45%.
For `CC(=O)N1CCC(C(=O)Nc2nc(C3CC3)cs2)CC1` the value was -4.64%; for `COCCNC(=O)[C@H]1CN(Cc2cccs2)C[C@H]2OCC[C@@H]12`, 25.4%; for `Cc1noc(C)c1CN1Cc2ccnn2CC(C(=O)NCC2CC2)C1` (centres undefined), -6.51%.
The value for `Cc1cccc(N2CCCC3(C2)CN(c2nncs2)CCO3)c1` (centres undefined) was 16.1%; that for `O=C(CCn1cccn1)NCCOc1cccc(Cl)c1` was -7.23%; that for `CCNS(=O)(=O)c1ccc(C)c(C(=O)N(C)Cc2ccccc2C)c1` was 2.99%.

The record behind these values is ChEMBL document CHEMBL3507680, “University of Dundee, Gates Library screen for HepG2 cell viability”.
